Data set [1] deals with Nucleic Acid. The experiment in a line: Binding affinity to human pre-hsa-mir-155 miRNA assessed as increase in melting temperature. Format: nucleic-acid assay.
Data set [2] concerns Nucleic Acid. The experiment in a line: Binding affinity to human pre-hsa-mir-155 miRNA assessed as melting temperature at 112 uM (reference value: 48 degC). In kind it is nucleic-acid assay.
For data set [3], the system named is Nucleic Acid. The experiment in a line: Binding affinity to human pre-hsa-mir-155 miRNA assessed as melting temperature at 2 uM (reference value: 48 degC). In kind it is nucleic-acid assay.
The target in data set [4] is Nucleic Acid. In words: Displacement of ethidium bromide from human pre-hsa-mir-155 miRNA after 30 mins. Format: nucleic-acid assay.
For data set [5], the system named is Nucleic Acid. In words: Binding affinity to human pre-hsa-mir-155 miRNA assessed as melting temperature at 12 uM (reference value: 48 degC). In kind it is nucleic-acid assay.
In data set [6] the test system is Nucleic Acid. In words: Binding affinity to human pre-hsa-mir-155 miRNA assessed as inhibition of dicer-catalysed (33P)-labelled pre-miRNA processing at 1 mM after 1 hr by PAGE analysis. In kind it is nucleic-acid assay. To be noted: for residual activity: values are per cent of control.
Data set [7] is described as follows: Aqueous solubility of the compound. Format: physicochemical. The settings on record: buffer.
Data set [8] addresses Nucleic Acid. The experiment in a line: Binding affinity to human pre-hsa-mir-155 miRNA assessed as increase in fluorescence after 30 mins by fluorimetry. In kind it is nucleic-acid assay.
The subject of data set [9] is Nucleic Acid. The experiment in a line: Binding affinity to human pre-hsa-mir-155 miRNA assessed as melting temperature at 10 uM (reference value: 48 degC). In kind it is nucleic-acid assay.

pKd: −log10 of the molar value. Calls of active or inactive are those of the source. The calls are words filed in the database; no cut-off is given here. *1 amine or outer side, *2 acyl side, *3 side chain or, on linkers, in order; H or OH if unused. Where a SMILES comes first, the peptide text is derived from it. Bridges are numbered along the chain shown (N, C = ends). Roman numbers before positions name the chains, in order. [ ]: non-standard residue; d: D form. Actinocin(9to1) = Cc1c2oc3c(C)ccc(C(=O)[*:1])c3nc-2c(C(=O)[*:2])c(N)c1=O; NMeV = CN[C@H](C(=O)O)C(C)C; Sar = CNCC(=O)O Where only a bound is given, the exact number is not on record here.

As usually defined, the pKd is the negative decadic logarithm of the Kd, by convention in mol/L. As for `NC[C@@H]1O[C@@H](O[C@H]2[C@H](O)[C@@H](O[C@H]3O[C@H](CO)[C@@H](O)[C@H](N)[C@H]3O)[C@H](N)C[C@@H]2N)[C@@H](O)[C@H](O)[C@H]1O` [KANAMYCIN A], the Activity result in the data set with Nucleic Acid [1] was “Dose-dependent effect”. Besides, the values for the Tm in the data set on Nucleic Acid [2], with Nucleic Acid [3] and in the data set with Nucleic Acid [5] were above 70 °C, 55 °C and 64 °C, respectively. This compound also gave a pKd on Nucleic Acid [4] of 3.85.
Regarding `COc1ccc2cc3[n+](cc2c1OC)CCc1cc2c(cc1-3)OCO2`, the inhibition result in the data set on Nucleic Acid [6] is “inactive”.
`CN[C@@H]1[C@H](O)[C@H](NC)[C@H]2O[C@@]3(O)C(=O)C[C@@H](C)O[C@H]3O[C@@H]2[C@H]1O` [SPECTINOMYCIN] had a pKd on Nucleic Acid [4] below 4.00.
Turning to `CCN(CC)CCCC(C)Nc1c2ccc(Cl)cc2nc2ccc(OC)cc12` (stereo unspecified), the inhibition entry in the data set with Nucleic Acid [6] was “inactive”.
Regarding `CCO.C[C@H]1c2cccc(O)c2C(=O)C2=C(O)[C@]3(O)C(=O)C(C(N)=O)=C(O)[C@@H](N(C)C)[C@@H]3[C@@H](O)[C@@H]21.Cl.O`, in data set [7], the solubility entry is listed as “soluble”. Besides, in the data set with Nucleic Acid [4], the result was inactive.
Turning to `Cc1c2oc3c(C)ccc(C(=O)N[C@@H]4C(=O)N[C@H](C(C)C)C(=O)N5CCC[C@H]5C(=O)N(C)CC(=O)N(C)[C@@H](C(C)C)C(=O)O[C@@H]4C)c3nc-2c(C(=O)N[C@@H]2C(=O)N[C@H](C(C)C)C(=O)N3CCC[C@H]3C(=O)N(C)CC(=O)N(C)[C@@H](C(C)C)C(=O)O[C@@H]2C)c(N)c1=O` (I: T[dV]P[Sar][NMeV] / II: T[dV]P[Sar][NMeV]; ester I:1-I:C, II:1-II:C; linker I:N-II:N via Actinocin(9to1)), in the data set on Nucleic Acid [6], the inhibition result was “inactive”.
As for `CC[n+]1c(-c2ccccc2)c2cc(N)ccc2c2ccc(N)cc21` [HOMIDIUM BROMIDE], at Nucleic Acid [8], the pKd is 5.30.
The compound `NCC[C@H](O)C(=O)N[C@@H]1C[C@H](N)[C@@H](O[C@H]2O[C@H](CN)[C@@H](O)[C@H](O)[C@H]2O)[C@H](O)[C@H]1O[C@H]1O[C@H](CO)[C@@H](O)[C@H](N)[C@H]1O` [AMIKACIN] gave a pKd on Nucleic Acid [4] below 4.00.
The same measure, in the same setting: in the case of `NC[C@H]1O[C@H](O[C@H]2[C@H](O)[C@@H](O[C@H]3O[C@H](CO)[C@@H](O)[C@H](N)[C@H]3O)[C@H](N)C[C@@H]2N)[C@H](N)[C@@H](O)[C@@H]1O` [BEKANAMYCIN] it was 5.22; in that of `CCN[C@@H]1C[C@H](N)[C@@H](O[C@H]2OC(CN)=CC[C@H]2N)[C@H](O)[C@H]1O[C@H]1OC[C@](C)(O)[C@H](NC)[C@H]1O` [NETILMICIN], below 4.00.
What is called residual activity is the signal under treatment as a percentage of the control signal. In the case of `NC[C@@H]1O[C@H](O[C@H]2[C@@H](O)[C@H](O[C@@H]3[C@@H](O)[C@H](N)C[C@H](N)[C@H]3O[C@H]3O[C@H](CN)[C@@H](O)[C@H](O)[C@H]3N)O[C@@H]2CO)[C@H](N)[C@@H](O)[C@@H]1O` (stereo in doubt; form 2), the residual activity with Nucleic Acid [6] is 10%. Further, the Tm was 48 °C with Nucleic Acid [3] and above 70 °C in the data set with Nucleic Acid [5].
As to `CN(C)[C@H]1C(O)=C(C(N)=O)C(=O)[C@@]2(O)C(O)=C3C(=O)c4c(O)ccc(Cl)c4[C@@](C)(O)[C@H]3C[C@@H]12`, in the data set on Nucleic Acid [4], the outcome was inactive.
In the case of `Cc1c2c(c(O)c3c(O)ccc(Cl)c13)C(=O)[C@]1(O)C(=O)C(C(N)=O)=C(O)[C@H](N(C)C)[C@@H]1C2.Cl`, the solubility entry in data set [7] is “soluble”. In addition, the result in the data set on Nucleic Acid [4] was inactive.
Regarding `NC[C@@H]1O[C@H](O[C@H]2[C@@H](O)[C@H](O[C@@H]3[C@@H](O)[C@H](N)C[C@H](N)[C@H]3O[C@H]3O[C@H](CN)[C@@H](O)[C@H](O)[C@H]3N)O[C@@H]2CO)[C@H](N)[C@@H](O)[C@@H]1O` (stereo in doubt; form 1) [FRAMYCETIN], on Nucleic Acid [4], the pKd was 5.22.
With `Cc1c2c(c(O)c3c(O)cccc13)C(=O)[C@]1(O)C(=O)C(C(N)=O)=C(O)[C@@H](N(C)C)[C@@H]1C2.Cl` [ANHYDROTETRACYCLINE HYDROCHLORIDE], in [7], the solubility result is on record as “soluble”. For the same compound, in the data set on Nucleic Acid [4], the result was inactive.
`CN(C)[C@H]1C(O)=C(C(N)=O)C(=O)[C@@]2(O)C(O)=C3C(=O)c4c(O)cccc4[C@@](C)(O)[C@H]3C[C@@H]12`: the result in the data set on Nucleic Acid [4] was inactive.
Consider `NC[C@@H]1O[C@H](O[C@H]2[C@@H](O)[C@H](O[C@@H]3[C@@H](O)[C@H](N)C[C@H](N)[C@H]3O[C@H]3O[C@H](CN)[C@@H](O)[C@H](O)[C@H]3N)O[C@@H]2CO)[C@H](N)[C@@H](O)[C@@H]1O` (stereo in doubt; form 2) [FRAMYCETIN], for which the pKd on Nucleic Acid [4] was 4.96.
Regarding `CN(C)[C@@H]1C(O)=C(C(N)=O)C(=O)[C@@]2(O)C(O)=C3C(=O)c4c(O)cccc4[C@@](C)(O)[C@H]3C[C@@H]12`, in the data set with Nucleic Acid [4], the result was inactive.
Same read-out and setting: in the case of `CN(C)c1ccc(O)c2c1C[C@H]1C[C@H]3[C@H](N(C)C)C(O)=C(C(N)=O)C(=O)[C@@]3(O)C(O)=C1C2=O` it was “inactive”.
As for BLEOMYCIN, the inhibition entry in the data set on Nucleic Acid [6] was “inactive”.
With `Nc1ccc2cc3ccc(N)cc3nc2c1`, the residual activity in the data set on Nucleic Acid [6] is 93%.
On to `CN1CCN(c2ccc3[nH]c(-c4ccc5[nH]c(-c6ccc(O)cc6)nc5c4)nc3c2)CC1`, for which the residual activity in the data set on Nucleic Acid [6] stood at 40%. Besides, the pKd on Nucleic Acid [8] was 4.85.
Take `NC[C@@H]1O[C@H](O[C@H]2[C@@H](O)[C@H](O[C@@H]3[C@@H](O)[C@H](N)C[C@H](N)[C@H]3O[C@H]3O[C@H](CN)[C@@H](O)[C@H](O)[C@H]3N)O[C@@H]2CO)[C@H](N)[C@@H](O)[C@@H]1O` (stereo in doubt; form 1): the Activity result in the data set with Nucleic Acid [1] is “Dose-dependent effect”. Moreover, the Tm was above 70 °C in the data set with Nucleic Acid [9], 50 °C in the data set with Nucleic Acid [3] and above 70 °C with Nucleic Acid [5]. Also, the residual activity in the data set on Nucleic Acid [6] turned out to be 10%.
With `N=C(N)c1ccc(-c2cc3ccc(C(=N)N)cc3[nH]2)cc1`, the residual activity in the data set on Nucleic Acid [6] amounted to 100%.
Regarding `C=C1c2cccc(O)c2C(=O)C2=C(O)[C@]3(O)C(=O)C(C(N)=O)=C(O)[C@@H](N(C)C)[C@@H]3[C@@H](O)[C@H]12.Cl` [METHACYCLINE HYDROCHLORIDE], the solubility result in [7] is reported as “soluble”. Besides, the result with Nucleic Acid [4] was inactive.
As for `CN(C)[C@@H]1C(O)=C(C(N)=O)C(=O)[C@@]2(O)C(O)=C3C(=O)c4c(O)ccc(Cl)c4[C@@H](O)[C@H]3C[C@@H]12.Cl` [DEMECLOCYCLINE HYDROCHLORIDE], in [7], the solubility result is listed as “soluble”. Besides, the result with Nucleic Acid [4] was inactive.
The compound GENTAMICIN had a pKd at Nucleic Acid [4] below 4.00.
On to `CN[C@@H]1[C@@H](O[C@H]2O[C@H](CO)[C@@H](N)[C@H](O)[C@H]2O)OC2C[C@@H](N)[C@@H](O[C@H]3[C@H](O)[C@@H](O)[C@H](N)C[C@@H]3N)OC2[C@@H]1O` (stereo partly specified), for which, in the data set with Nucleic Acid [6], the residual activity is 10%.
`CN[C@@H]1[C@H](O[C@H]2[C@H](O[C@H]3[C@H](O)[C@@H](O)[C@H](NC(=N)N)[C@@H](O)[C@@H]3NC(=N)N)O[C@@H](C)[C@]2(O)CO)O[C@@H](CO)[C@H](O)[C@H]1O` [DIHYDROSTREPTOMYCIN]: at Nucleic Acid [4], the pKd is below 4.00.
For the compound `CN[C@H](CC(C)C)C(=O)N[C@H]1C(=O)N[C@@H](CC(N)=O)C(=O)N[C@H]2C(=O)N[C@H]3C(=O)N[C@H](C(=O)N[C@H](C(=O)O)c4cc(O)cc(O)c4-c4cc3ccc4O)[C@H](O)c3ccc(c(Cl)c3)Oc3cc2cc(c3O[C@@H]2O[C@H](CO)[C@@H](O)[C@H](O)[C@H]2O[C@H]2C[C@](C)(N)[C@H](O)[C@H](C)O2)Oc2ccc(cc2Cl)[C@H]1O`, the inhibition entry in the data set on Nucleic Acid [6] is “inactive”.
Take `NC[C@H]1O[C@H](O[C@H]2[C@H](O)[C@@H](O[C@H]3O[C@H](CO)[C@@H](O)[C@H](N)[C@H]3O)[C@H](N)C[C@@H]2N)[C@H](N)C[C@@H]1O` [TOBRAMYCIN]: the pKd on Nucleic Acid [4] is below 4.00.
As for `COc1cccc2c1C(=O)c1c(O)c3c(c(O)c1C2=O)C[C@@](O)(C(C)=O)C[C@@H]3O[C@H]1C[C@H](N)[C@H](O)[C@H](C)O1`, the residual activity in the data set on Nucleic Acid [6] was 19%.
For `COc1cccc2c1C(=O)c1c(O)c3c(c(O)c1C2=O)C[C@@](O)(C(=O)CO)C[C@@H]3O[C@H]1C[C@H](N)[C@H](O)[C@H](C)O1`, the residual activity in the data set on Nucleic Acid [6] is 83%.
In the case of `Cc1c2c(c(O)c3c(O)cccc13)C(=O)[C@]1(O)C(=O)C(C(N)=O)=C(O)[C@H](N(C)C)[C@@H]1C2.Cl`, the solubility result in data set [7] is given as “soluble”. The result with Nucleic Acid [4] was inactive.

Values taken from ChEMBL document CHEMBL1949550, “Pre-microRNA binding aminoglycosides and antitumor drugs as inhibitors of Dicer catalyzed microRNA processing” (Bioorg Med Chem Lett, 2012).
